Source: patent US9062074B2, “(9E)-15-(2-pyrrolidin-1-yl-ethoxy)-7,12,25-trioxa-19,21,24-triaza-tetracyclo[18.3.1.1(2.5).1(14,18)]hexacosa-1(24),2,4,9,14,16,18(26),20,22-nonaene citrate salt” (CTI BioPharma Corp., priority 2009, dated 2015)
Like-named read-outs stand apart in the source and are kept apart here.

Key:
Format in all cases: physicochemical
[1] = Thermogravimetric Analysis (TGA)
Method: Thermogravimetric Analysis (TGA) data were collected on a Mettler TGA/SDTA 851e equipped with a 34 position autosampler. The instrument was temperature calibrated using certified indium. Typically 5-30 mg of each sample was loaded onto a pre-weighed aluminium crucible and was heated at 10° C.min^−1 from ambient temperature to 350° C. A nitrogen purge at 50 ml.min^−1 was maintained over the sample. The instrument control and data analysis software was STARe v9.10.

[2] = Phase stability by XRPD after storage at 40° C. and 75% relative humidity for one week; details: solid form by low resolution XRPD after one week
Method: Condition 2 (Low Resolution)
X-Ray Powder Diffraction patterns were also collected on a Bruker D8 diffractometer using Cu K[…] radiation (40 kV, 40 mA), θ-2θ goniometer, and divergence of V4 and receiving slits, a Ge monochromator and a Lynxeye detector. The instrument is performance checked using a certified Corundum standard (NIST 1976). The software used for data collection was Diffrac Plus XRD Commander v2.5.0 and the data were analysed and presented using Diffrac Plus EVA v 11.0.0.2 or v 13.0.0.2. Samples were run under ambient conditions as flat plate specimens using powder as received. Approximately 15 mg of the sample was gently packed into a cavity cut into polished, zerobackground (510) silicon wafer. The sample was rotated in its own plane during analysis. The details of the data collection are:
The samples which had been prepared for the collection of low resolution XRPD traces were placed in a chamber maintained at 40° C. and 75% relative humidity. After one week the samples were reanalysed by low resolution XRPD (Condition 2), to check for phase changes. It can be seen that no phase change has occurred, and that citrate salts of the invention are stable for at least one week under these conditions.

[3] = Solubility assessment (solvent added in 10 volume aliquots); details: organic solvent or mixture, thermodynamic from solid, read-out: Solubility assessment observation
Method: For each solvent investigated, approximately 8 mg of compound 1 was weighed into an 8 ml screw top glass vial. The solvent was added in 10 volume aliquots and the mixture sonicated and warmed (with a hot-air gun) to encourage dissolution. If dissolution was not achieved after the addition of 100 volumes of solvent, a further 100 volumes was added.

[4] = Differential Scanning Calorimetry (DSC); details: from DSC endotherm shape and TGA weight loss
Method: Differential Scanning Calorimetry (DSC) data were collected on a Mettler DSC 823e equipped with a 34 position auto-sampler. The instrument was calibrated for energy and temperature using certified indium. Typically 0.5-3 mg of each sample, in a pin-holed aluminium pan, was heated at 10° C.min^−1 from 25° C. to 350° C. A nitrogen purge at 50 ml.min^−1 was maintained over the sample. The instrument control and data analysis software was STARe v9.10.

C1=C2COC/C=C/COCc3cc(ccc3OCCN3CCCC3)Nc3nccc(n3)C(=C1)O2 [Batch 4]
Thermogravimetric Analysis weight change ([1]; 160 to 250° C.): −20% w/w 160 to 250 °C | Thermogravimetric Analysis weight change ([1]; ambient to 160° C.): −0.4% w/w ambient to | weight loss in TGA corresponding to DSC thermal event ([1]; at thermal event at 176° C.): ~20% | Phase Stability 1 wk @ 40° C./75% RH [2]: Crystalline Form 1 | solubility ([3]; TBME, TBME, 10 vols): < 100 mg/mL | solubility ([3]; TBME, TBME, 20 vols): < 50 mg/mL | solubility ([3]; TBME, TBME, 30 vols): < 33.3 mg/mL | solubility ([3]; TBME, TBME, 40 vols): < 25 mg/mL | solubility ([3]; TBME, TBME, 50 vols): < 20 mg/mL | solubility ([3]; TBME, TBME, 60 vols): < 16.7 mg/mL | solubility ([3]; TBME, TBME, 70 vols): < 14.3 mg/mL | solubility ([3]; TBME, TBME, 80 vols): < 12.5 mg/mL | solubility ([3]; TBME, TBME, 90 vols): < 11.1 mg/mL | solubility ([3]; TBME, TBME, 100 vols): < 10 mg/mL | solubility ([3]; TBME, TBME, 200 vols): < 5 mg/mL | solubility ([3]; ethyl acetate, Ethyl acetate, 10 vols): < 100 mg/mL | solubility ([3]; ethyl acetate, Ethyl acetate, 20 vols): < 50 mg/mL | solubility ([3]; ethyl acetate, Ethyl acetate, 30 vols): < 33.3 mg/mL | solubility ([3]; ethyl acetate, Ethyl acetate, 40 vols): < 25 mg/mL | solubility ([3]; ethyl acetate, Ethyl acetate, 50 vols): < 20 mg/mL | solubility ([3]; ethyl acetate, Ethyl acetate, 60 vols): < 16.7 mg/mL | solubility ([3]; ethyl acetate, Ethyl acetate, 70 vols): < 14.3 mg/mL | solubility ([3]; ethyl acetate, Ethyl acetate, 80 vols): < 12.5 mg/mL | solubility ([3]; ethyl acetate, Ethyl acetate, 90 vols): < 11.1 mg/mL | solubility ([3]; ethyl acetate, Ethyl acetate, 100 vols): < 10 mg/mL | solubility ([3]; ethyl acetate, Ethyl acetate, 200 vols): < 5 mg/mL | solubility ([3]; i-propyl acetate, i-propyl acetate, 10 vols): < 100 mg/mL | solubility ([3]; i-propyl acetate, i-propyl acetate, 20 vols): < 50 mg/mL | solubility ([3]; i-propyl acetate, i-propyl acetate, 40 vols): < 25 mg/mL | solubility ([3]; i-propyl acetate, i-propyl acetate, 60 vols): < 16.7 mg/mL | solubility ([3]; i-propyl acetate, i-propyl acetate, 80 vols): < 12.5 mg/mL | solubility ([3]; i-propyl acetate, i-propyl acetate, 100 vols): < 10 mg/mL | solubility ([3]; i-propyl acetate, i-propyl acetate, 200 vols): < 5 mg/mL | solubility ([3]; toluene, Toluene, 10 vols): < 100 mg/mL | solubility ([3]; toluene, Toluene, 20 vols): < 50 mg/mL | solubility ([3]; toluene, Toluene, 30 vols): < 33.3 mg/mL | solubility ([3]; toluene, Toluene, 40 vols): < 25 mg/mL | solubility ([3]; toluene, Toluene, 50 vols): < 20 mg/mL | solubility ([3]; toluene, Toluene, 60 vols): < 16.7 mg/mL | solubility ([3]; toluene, Toluene, 70 vols): < 14.3 mg/mL | solubility ([3]; toluene, Toluene, 80 vols): < 12.5 mg/mL | solubility ([3]; toluene, Toluene, 90 vols): < 11.1 mg/mL | solubility ([3]; toluene, Toluene, 100 vols): < 10 mg/mL | solubility ([3]; toluene, Toluene, 200 vols): < 5 mg/mL | temperature above which gross degradation is occurring [4]: > 176 °C
